Source: patent US9302999B2, “Substituted triazoles as herbicides” (E. I. DU PONT DE NEMOURS AND COMPANY, priority 2012, dated 2016)

Legend:
Assay type in all cases: in vivo
[1] = test system: deadnettle (henbit deadnettle, Lamium amplexicaule); experiment: Test D pre-/postemergence: deadnettle
In short: (§1)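 Applied as a non-phytotoxic solvent formulation with surfactant, compounds were tested preemergence in silt loam and postemergence on seedlings 2 to 18 cm high in peat-vermiculite medium. Evaluation was visual, 0 meaning no effect and 100 complete control, at 14 to 21 days.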

[2] = test system: Russian thistle (Salsola iberica); experiment: Test D pre-/postemergence: Russian thistle; settings: Postemergence
In short: as §1

[3] = test system: oat, wild (wild oat, Avena fatua); experiment: Test D pre-/postemergence: oat, wild
In short: as §1

[4] = test system: windgrass (Apera spica-venti); experiment: Test D pre-/postemergence: windgrass
In short: as §1

soybean (Glycine max) = experiment: Test F pre-/postemergence: soybean
In short: (§2)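 0–100 visual control scores, taken 14–21 d after application in the greenhouse. Preemergence treatment was made to silt loam soil at sowing. Postemergence sprays hit 1- to 4-leaf plants (2–18 cm) in peat/vermiculite mix. Surfactant-containing non-phytotoxic solvent served as the vehicle.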

[5] = test system: waterhemp (common waterhemp, Amaranthus rudis); experiment: Test F pre-/postemergence: waterhemp; settings: Preemergence
In short: as §2

[6] = test system: arrowleaf sida (Sida rhombifolia); experiment: Test F pre-/postemergence: arrowleaf sida
In short: as §2

[7] = Postemergence, 31 g ai/ha, scale 0 to 100 (0 no effect, 100 complete control)
[8] = Postemergence, 62 g ai/ha, scale 0 to 100 (0 no effect, 100 complete control)
[9] = Postemergence, 125 g ai/ha, scale 0 to 100, 0 no effect, 100 complete control
[10] = Postemergence, 16 g ai/ha, scale 0 to 100
[11] = Preemergence, 16 g ai/ha, scale 0 to 100, 0 no effect, 100 complete control
[12] = Preemergence, 31 g ai/ha, scale 0 to 100, 0 no effect, 100 complete control
[13] = Preemergence, 62 g ai/ha, scale 0 to 100
[14] = Preemergence, 125 g ai/ha, scale 0 to 100
[15] = Postemergence, 31 g ai/ha, scale 0 to 100
[16] = Postemergence, 8 g ai/ha, scale 0 to 100
[17] = Postemergence, 62 g ai/ha, scale 0 to 100
[18] = Postemergence, 125 g ai/ha, scale 0 to 100
[19] = Preemergence, 8 g ai/ha, scale 0 to 100, 0 no effect, 100 complete control

SMILES: CCOc1nn(-c2ccc(F)cc2)nc1Cc1ccnc(C(F)(F)F)c1 [Compound 196, 4-[[5-ethoxy-2-(4-fluorophenyl)-2H-1,2,3-triazol-4-yl]methyl]-2-(trifluoromethyl)pyridine]
- Plant response rating: Deadnettle [1, 7]: 100
- Plant response rating: Deadnettle [1, 8]: 100
- Plant response rating: Deadnettle [1, 9]: 100
- Plant response rating, Deadnettle [1, 10]: 85
- Plant response rating, Deadnettle [1, 11]: 10
- Plant response rating, Deadnettle [1, 12]: 40
- Plant response rating, Deadnettle [1, 13]: 100
- Plant response rating, Deadnettle [1, 14]: 100
- Plant response rating: Russian Thistle ([2]; 31 g ai/ha, scale 0 to 100 (0 no effect, 100 complete control)): 90
- Plant response rating: Russian Thistle ([2]; 62 g ai/ha, scale 0 to 100 (0 no effect, 100 complete control)): 80
- Plant response rating: Russian Thistle ([2]; 125 g ai/ha, scale 0 to 100, 0 no effect, 100 complete control): 75
- Plant response rating, Russian Thistle ([2]; 16 g ai/ha, scale 0 to 100): 80
- Plant response rating: Oat, Wild [3, 7]: 50
- Plant response rating: Oat, Wild [3, 8]: 45
- Plant response rating: Oat, Wild [3, 9]: 70
- Plant response rating, Oat, Wild [3, 10]: 15
- Plant response rating, Oat, Wild [3, 11]: 25
- Plant response rating, Oat, Wild [3, 12]: 30
- Plant response rating, Oat, Wild [3, 13]: 75
- Plant response rating, Oat, Wild [3, 14]: 100
- Plant response rating: Windgrass [4, 8]: 95
- Plant response rating: Windgrass [4, 9]: 95
- Plant response rating, Windgrass [4, 10]: 60
- Plant response rating, Windgrass [4, 15]: 75
- Plant response rating, Windgrass [4, 11]: 20
- Plant response rating, Windgrass [4, 12]: 100
- Plant response rating, Windgrass [4, 13]: 100
- Plant response rating, Windgrass [4, 14]: 100
- Plant response rating, Soybean (soybean (Glycine max); [16]): 50
- Plant response rating, Soybean (soybean (Glycine max); [10]): 60
- Plant response rating, Soybean (soybean (Glycine max); [15]): 65
- Plant response rating, Soybean (soybean (Glycine max); [17]): 70
- Plant response rating, Soybean (soybean (Glycine max); [18]): 80
- Plant response rating, Soybean (soybean (Glycine max); [19]): 0
- Plant response rating, Soybean (soybean (Glycine max); [11]): 0
- Plant response rating, Soybean (soybean (Glycine max); [12]): 20
- Plant response rating, Soybean (soybean (Glycine max); [14]): 35
- Plant response rating, Waterhemp ([5]; 8 g ai/ha, scale 0 to 100, 0 no effect, 100 complete control): 50
- Plant response rating, Waterhemp ([5]; 16 g ai/ha, scale 0 to 100, 0 no effect, 100 complete control): 95
- Plant response rating, Waterhemp ([5]; 31 g ai/ha, scale 0 to 100, 0 no effect, 100 complete control): 98
- Plant response rating, Waterhemp ([5]; 125 g ai/ha, scale 0 to 100): 100
- Plant response rating, Arrowleaf Sida [6, 16]: 80
- Plant response rating, Arrowleaf Sida [6, 10]: 90
- Plant response rating, Arrowleaf Sida [6, 15]: 90
- Plant response rating, Arrowleaf Sida [6, 17]: 95
- Plant response rating, Arrowleaf Sida [6, 18]: 95
- Plant response rating, Arrowleaf Sida [6, 19]: 0
- Plant response rating, Arrowleaf Sida [6, 11]: 0
- Plant response rating, Arrowleaf Sida [6, 12]: 15
- Plant response rating, Arrowleaf Sida [6, 13]: 15
- Plant response rating, Arrowleaf Sida [6, 14]: 15
